This passage reports DC50 and Dmax results from US12559506B2, “Indazole based compounds and associated methods of use” (Arvinas Operations, Inc., priority 2021, dated 2026).

Where two headings read alike, the source gives them in different places.

As usually defined, the DC50 is the midpoint of the concentration-degradation curve. Usually Dmax stands for the greatest extent of degradation seen.

The target in test [1] is T1, G2019S LRRK2 (Homo sapiens, UniProt Q5S007, G2019S).
T1 construct: expressed in transfected cells; host or cells: HEK293 (ATCC CRL-1573), transient transfection, mammalian expression vector with ubiquitin promoter
The test can be described thus: LRRK2 degradation assay, HiBit-tagged G2019S LRRK2 expressed from plasmid in HEK293 cells (Nano-Glo Dual-Luciferase). The format is cell-based. As to conditions: 24 hours. In short, it runs like this:
(§1)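 Degradation read as Nano-Glo HiBiT signal over firefly luciferase (cell number/viability) after 24 h compound exposure of transiently transfected HEK293 expressing C-terminally HiBiT-tagged wildtype or G2019S LRRK2. Data as % DMSO; DC50/Dmax fitted per plate, triplicate plates repeated twice.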

The target in test [2] is T2, wildtype LRRK2 (Homo sapiens, UniProt Q5S007).
T2 construct: expressed in transfected cells; host or cells: HEK293 (ATCC CRL-1573), transient transfection, mammalian expression vector with ubiquitin promoter
Description: LRRK2 degradation assay, HiBit-tagged wildtype LRRK2 expressed from plasmid in HEK293 cells (Nano-Glo Dual-Luciferase). Particulars: 24 hours; for Dmax: read-out: **WT Dmax (%); for DC50: read-out: *WT DC50. The format is cell-based. In short, it runs like this: as §1
Background: HiBiT is a short tag that completes a luciferase, so light tracks the accessible tagged protein.

[3] abbreviates: HiBit-tagged G2019S LRRK2, HEK293 cells.
The mark [4] stands for this setting: HiBit-tagged wildtype LRRK2, HEK293 cells.
The mark [5] stands for this setting: HiBit-tagged G2019S LRRK2 in HEK293 cells.
Where [6] appears, read: HiBit-tagged wildtype LRRK2 in HEK293 cells.

T2 sequence (Q5S007 whole entry): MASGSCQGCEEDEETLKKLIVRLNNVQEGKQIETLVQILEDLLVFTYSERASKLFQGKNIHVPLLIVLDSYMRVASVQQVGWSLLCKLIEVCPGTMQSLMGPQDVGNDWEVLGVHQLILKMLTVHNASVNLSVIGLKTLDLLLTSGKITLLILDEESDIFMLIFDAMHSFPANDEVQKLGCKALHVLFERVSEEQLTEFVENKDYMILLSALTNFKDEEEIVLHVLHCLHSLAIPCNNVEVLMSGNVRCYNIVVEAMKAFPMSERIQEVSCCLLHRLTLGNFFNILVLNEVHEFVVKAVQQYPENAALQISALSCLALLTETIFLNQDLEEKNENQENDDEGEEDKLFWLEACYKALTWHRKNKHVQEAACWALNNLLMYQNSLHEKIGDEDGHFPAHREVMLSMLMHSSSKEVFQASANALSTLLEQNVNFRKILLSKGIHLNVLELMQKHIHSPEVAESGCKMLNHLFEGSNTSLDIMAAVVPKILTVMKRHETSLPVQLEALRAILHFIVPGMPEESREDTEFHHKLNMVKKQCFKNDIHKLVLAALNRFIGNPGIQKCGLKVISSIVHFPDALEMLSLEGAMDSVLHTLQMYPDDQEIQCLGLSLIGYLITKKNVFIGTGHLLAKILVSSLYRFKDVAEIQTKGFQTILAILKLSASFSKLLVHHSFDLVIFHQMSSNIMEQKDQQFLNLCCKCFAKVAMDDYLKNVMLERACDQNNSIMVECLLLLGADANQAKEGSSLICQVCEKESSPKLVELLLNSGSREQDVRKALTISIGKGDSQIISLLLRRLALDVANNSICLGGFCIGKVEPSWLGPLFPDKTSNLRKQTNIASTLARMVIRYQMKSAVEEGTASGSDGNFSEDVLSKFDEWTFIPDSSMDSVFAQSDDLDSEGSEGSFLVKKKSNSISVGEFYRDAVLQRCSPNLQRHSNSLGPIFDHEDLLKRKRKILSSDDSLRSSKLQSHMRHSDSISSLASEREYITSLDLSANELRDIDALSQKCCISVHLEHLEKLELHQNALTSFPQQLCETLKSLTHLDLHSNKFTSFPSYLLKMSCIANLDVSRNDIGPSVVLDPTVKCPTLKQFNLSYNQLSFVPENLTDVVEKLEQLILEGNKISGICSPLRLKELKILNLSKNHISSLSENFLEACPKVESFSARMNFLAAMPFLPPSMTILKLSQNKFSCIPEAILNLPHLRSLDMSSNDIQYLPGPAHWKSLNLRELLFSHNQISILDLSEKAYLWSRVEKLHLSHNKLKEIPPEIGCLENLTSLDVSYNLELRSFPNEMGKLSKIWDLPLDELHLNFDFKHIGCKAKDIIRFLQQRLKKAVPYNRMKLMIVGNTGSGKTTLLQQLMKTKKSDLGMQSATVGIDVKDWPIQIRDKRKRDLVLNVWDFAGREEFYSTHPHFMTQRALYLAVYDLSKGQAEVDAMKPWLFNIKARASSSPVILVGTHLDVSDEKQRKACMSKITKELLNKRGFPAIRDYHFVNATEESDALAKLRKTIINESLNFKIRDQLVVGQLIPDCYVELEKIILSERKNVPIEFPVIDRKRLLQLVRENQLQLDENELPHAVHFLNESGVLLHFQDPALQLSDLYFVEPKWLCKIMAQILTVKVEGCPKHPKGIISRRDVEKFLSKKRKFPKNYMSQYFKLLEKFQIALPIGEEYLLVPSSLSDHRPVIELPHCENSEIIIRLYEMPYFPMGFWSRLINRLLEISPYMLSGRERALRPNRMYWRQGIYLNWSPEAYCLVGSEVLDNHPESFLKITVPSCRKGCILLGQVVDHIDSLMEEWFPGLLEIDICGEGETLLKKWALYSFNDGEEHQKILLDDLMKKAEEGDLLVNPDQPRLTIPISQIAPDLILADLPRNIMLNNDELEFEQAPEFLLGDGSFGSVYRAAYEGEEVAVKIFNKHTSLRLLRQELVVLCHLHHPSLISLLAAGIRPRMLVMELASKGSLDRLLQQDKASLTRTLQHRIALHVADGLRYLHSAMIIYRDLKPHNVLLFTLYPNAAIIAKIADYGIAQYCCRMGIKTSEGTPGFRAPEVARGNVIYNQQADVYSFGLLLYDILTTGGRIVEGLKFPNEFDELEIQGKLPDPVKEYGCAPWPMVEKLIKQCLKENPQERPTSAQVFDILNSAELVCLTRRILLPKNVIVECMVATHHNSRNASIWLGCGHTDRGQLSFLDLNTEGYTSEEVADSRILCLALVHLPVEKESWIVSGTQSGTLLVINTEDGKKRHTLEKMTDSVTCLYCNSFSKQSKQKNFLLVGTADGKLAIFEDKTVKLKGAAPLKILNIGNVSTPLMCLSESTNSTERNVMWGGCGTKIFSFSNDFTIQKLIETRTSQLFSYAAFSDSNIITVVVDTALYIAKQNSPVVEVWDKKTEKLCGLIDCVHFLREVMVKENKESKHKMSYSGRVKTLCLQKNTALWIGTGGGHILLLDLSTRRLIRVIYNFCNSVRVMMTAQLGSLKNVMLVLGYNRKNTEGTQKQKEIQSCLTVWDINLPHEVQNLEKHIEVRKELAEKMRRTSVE
T1 sequence (Q5S007 whole entry G2019S): as the sequence (Q5S007 whole entry) above, with G2019S counted along it

Take `CC1(Oc2ccc3[nH]nc(-c4cc(N5CCO[C@H](CCN6CCN(CC7CCN(c8ccc9c(c8)C(=O)N(C8CCC(=O)NC8=O)C9=O)CC7)CC6)C5)ncn4)c3c2)CC1` (stereo partly drawn) [Compound 155, 2-(2,6-dioxopiperidin-3-yl)-5-{4-[(4-{2-[(2R)-4-{6-[5-(1-methylcyclopropoxy)-1H-indazol-3-yl]pyrimidin-4-yl}morpholin-2-yl]ethyl}piperazin-1-yl)methyl]piperidin-1-yl}-2,3-dihydro-1H-isoindole-1,3-dione]: in test [1] (setting [3]), the DC50 was less than 10 nM and the Dmax was 50 to 70%. Also, in test [2] (setting [4]), the Dmax was in the range of 50 to 70% and the half-maximal degradation concentration (DC50) was less than 10 nM.
For `CC1(Oc2ccc3[nH]nc(-c4cc(N5CCC(CN6CC7(CN(CC8CCN(c9ccc%10c(c9)C(=O)N(C9CCC(=O)NC9=O)C%10=O)CC8)C7)C6)CC5)ncn4)c3c2)CC1` (stereo not drawn) [Compound 175, 2-(2,6-dioxo-3-piperidyl)-5-[4-[[2-[[1-[6-[5-(1-methylcyclopropoxy)-1H-indazol-3-yl]pyrimidin-4-yl]-4-piperidyl]methyl]-2,6-diazaspiro[3.3]heptan-6-yl]methyl]-1-piperidyl]isoindoline-1,3-dione], the half-maximal degradation concentration (DC50) in test [1] (setting [3]) and in test [2] (setting [4]) was less than 10 nM in each case. For the same molecule, the Dmax in test [1] (setting [3]) and in test [2] (setting [4]) was 50 to 70% each time.
In test [1] (setting [5]), `CC1(Oc2ccc3[nH]nc(-c4ccnc(N5CC(CN6CCN(CC7CCN(c8ccc9c(c8)C(=O)N(C8CCC(=O)NC8=O)C9=O)CC7)CC6)C5)c4)c3c2)CC1` (stereo not drawn) [Compound 128, 2-(2,6-dioxopiperidin-3-yl)-5-[4-({4-[(1-{4-[5-(1-methylcyclopropoxy)-1H-indazol-3-yl]pyridin-2-yl}azetidin-3-yl)methyl]piperazin-1-yl}methyl)piperidin-1-yl]-2,3-dihydro-1H-isoindole-1,3-dione] registered a DC50 of less than 10 nM and a maximal degradation (Dmax) of 50 to 70%. Further, in test [2] (setting [6]), the Dmax was in the range of 50 to 70% and the DC50 is less than 10 nM.
Take `C[C@H]1CN(c2cc(-c3[nH]nc4ccc(OC5(C)CC5)cc34)ncn2)CCN1Cc1cn(CC2CCN(c3ccc4c(c3)C(=O)N(C3CCC(=O)NC3=O)C4=O)CC2)nn1` (stereo partly drawn) [Compound 168, 2-(2,6-dioxo-3-piperidyl)-5-[4-[[4-[[(2S)-2-methyl-4-[6-[5-(1-methylcyclopropoxy)-2H-indazol-3-yl]pyrimidin-4-yl]piperazin-1-yl]methyl]triazol-1-yl]methyl]-1-piperidyl]isoindoline-1,3-dione]: in test [1] (setting [3]), the half-maximal degradation concentration (DC50) was in the range of 10 to 50 nM and the Dmax was less than 50%. Moreover, in test [2] (setting [4]), the greatest degradation seen (Dmax) is less than 50% and the DC50 was less than 10 nM.
In test [1] (setting [5]), `C[C@H]1CN(c2cc(-c3n[nH]c4ccc(OC5CC5)cc34)ncn2)CCN1CC1CCN(CC2CCN(c3ccc4c(c3)C(=O)N(C3CCC(=O)NC3=O)C4=O)CC2)CC1` (stereo partly drawn) [Compound 72, 5-{4-[(4-{[(2S)-4-[6-(5-cyclopropoxy-1H-indazol-3-yl)pyrimidin-4-yl]-2-methylpiperazin-1-yl]methyl}piperidin-1-yl)methyl]piperidin-1-yl}-2-(2,6-dioxopiperidin-3-yl)-2,3-dihydro-1H-isoindole-1,3-dione] gave a DC50 of 10 to 50 nM and a Dmax of 50 to 70%. For the same molecule, in test [2] (setting [6]), the maximal degradation (Dmax) fell in the range of 50 to 70% and the DC50 is 10 to 50 nM.
For the molecule `CC1(Oc2ccc3[nH]nc(-c4cc(N5CCC(CN6CCN(CC7CCN(c8cc9c(cc8F)C(=O)N(C8CCC(=O)NC8=O)C9=O)CC7)CC6)CC5)ncn4)c3c2)CC1` (stereo not drawn) [Compound 107, 2-(2,6-dioxo-3-piperidyl)-5-fluoro-6-[4-[[4-[[1-[6-[5-(1-methylcyclopropoxy)-1H-indazol-3-yl]pyrimidin-4-yl]-4-piperidyl]methyl]piperazin-1-yl]methyl]-1-piperidyl]isoindoline-1,3-dione], in test [1] (setting [5]), the half-maximal degradation concentration (DC50) lay in the range of 10 to 50 nM and the Dmax lay within 50 to 70%. In test [2] (setting [6]), the Dmax was less than 50% and the DC50 was less than 10 nM.
